“Also recorded” adds a separate entry of the source.

Results on one molecule are retold here after patent publication US20070003531A1, “Methods for improving immunotherapy by enhancing survival of antigen-specific cytotoxic T lymphocytes” (University of Connecticut, priority 2005, published 2007).

Experiment [1] has as its system phosphorylated Bim in CTL. Description: Generation of short phosphorylated Bim fragment in CTL during AICD. The experiment is classed as cell-based, human. The settings on record: CTLs encountering the MART-1 peptide. From the text: FIG. 16. Mitochondrial localization of JNK in the CTL. (A)—Heavy membrane fractions from CTLs in steady state (C), restimulated by the cognate peptide (M1) and control peptide (M3) and the corresponding cytosolic fractions (S-100) were probed for the presence for JNKs. As shown, JNK preferentially localized in the membrane fraction. (B)—The generation of short pBim fragment during AICD and the effect of SP600125 on the generation of this fragment. Mart-1 epitope specific control CTLs (c), and CTLs encountering the cognate peptide (M1), or encountering a control peptide (M3) and encountering the cognate peptide in the presence of SP600125 (SP) or encountering the cognate peptide in the presence of ERK1/2 inhibitor (PD)were probed with an anti-phosphorylated Bim antibody. A phosphorylated short fragment of Bim is generated in the CTLs encountering the MART-1 peptide and this is blocked by SP600125. (C)—Western blot of whole cell lysate of CTLs showing interaction between JNK and VDAC in CTLs (c=control, M1=CTL restimulated by the cognate peptide) Anti-CD8 Ab was used as a control antibody for immunoprecipitation.

The next experiment has as its system Mart-1 primary CTLs. Description: Mitochondrial transmembrane potential (DiOC6 staining). Particulars: induced by re-stimulation with cognate peptide; data not shown. It counts as cell-based, human. The procedure: FIG. 12. Effect of antigen specific secondary stimulation on mitochondrial transmembrane membrane potential (Δψm), pro- and anti-apoptotic protein and expression of cell surface molecules. (A) Differential effect on membrane polarization in Mart-1 primary CTLs (top panel) vs. Jurkat T cells (bottom panel). CTLs were incubated with T2 cells either alone or loaded with peptide. After overnight secondary exposure cells were stained with Mart-1 tetramer/CD8 and DiOC6. Histogram represents the fluorescence of DiOC6 in the gated antigen specific tetramer^+ population (top panel). Jurkat T cells were also analyzed for modulation of membrane potential after TCR-driven stimulation (bottom panel). Values represent the mean±SD of fluorescence intensity triplicates from one out of three separate experiment. *p<0.001 (One Way ANOVA). […] (C) Expression of different cell surface receptors for survival or death signal in antigen specific population upon secondary stimulation. Values on left upper corner represent the geometric mean of the fluorescence intensity for that particular marker when stimulated with T2/MAGE-3271-279 while that on right upper corner represent the geometric mean of the fluorescence intensity when stimulated with T2/MART-127-35.

The next experiment deals with c-jun N-terminal kinase. The settings on record: cited from earlier work.
For experiment [2], the system named is MART-127-35 tetramer+/CD8+ CTLs. Description: Survival of antigen specific CTLs five days after secondary encounter of the epitope. It counts as cell-based, human. The settings on record: day five in IL-15 after overnight co-culture with cognate epitope; inhibitor 25 μM then washed off. The method, then:
FIG. 13. Survival of the antigen specific CTLs following secondary encounter of the epitope in the presence of anthra[1,9-cd]pyrazol-6(2H)-one (SP600125) and recovery of function in the pyrazoloanthrone rescued CTLs. Effector cells were co-cultured with peptide pulsed T2 cells in the presence or absence of the kinase inhibitors (25 μM). The cultures were washed about 18 h later and then recultured in IL-15 containing medium. On day five, the numbers of the viable antigen specific CTLs were determined. […] The number (11%) of MART-127-35 tetramer^+/CD8^+ population exposed to MART-127-35 peptide pulsed T2 cells (T2/M1) is a reflection of loss of epitope specific CTLs from AICD. […] (B) IFN-γ response by the recovered populations (M3=MAGE-3271-279, M1=MART-127-35).
Finally, the functional status of SP600125 rescued CTLs upon continuous culture was examined. After overnight exposure of the CTLs to the cognate epitope in the presence or absence of SP600125, the CTLs were washed and then maintained in continuous culture in IL-15 containing CM without the inhibitor. Five days after, the number of viable MART-127-35 tetramer positive cells were determined and their function was tested in the IFN-γ response assay. […] Remarkably, the rescued CTLs regained their capacity to synthesize IFN-γ (FIG. 13B).

A word on the Ki: it is the dissociation constant of the complex between target and ligand, obtained from inhibition or displacement. Regarding `O=C1c2ccccc2-c2n[nH]c3cccc1c23` [SP600125, anthra[1,9-cd]pyrazol-6(2H)-one], the “generation/phosphorylation of short phosphorylated Bim fragment” value in experiment [1] is recorded as “inhibitable; also recorded: blocked”. The “level of hyper polarization of mitochondrial transmembrane potential” value in the experiment on Mart-1 primary CTLs is listed as “decreased”. Moreover, the inhibitory constant (Ki) at c-jun N-terminal kinase is ~190 nM. Further, the “fraction of starting epitope specific population recovered” value in experiment [2] is “larger fraction”.
